Measured values reported in patent US11834698B2, “Process for determining enzyme activity in a cell by activity-based reporter gene technology (ABRGT)” (INDIAN INSTITUTE OF SCIENCE EDUCATION AND RESEARCH, priority 2018, dated 2023).
Peptide text beside a SMILES is read from it. * marks the point of attachment. Cbz = O=C(OCc1ccccc1)*; CH2F = FC*

Target: T1, caspase-3 GFPspark (Homo sapiens, UniProt P42574)
T1 sequence (P42574 29-175 limits assumed): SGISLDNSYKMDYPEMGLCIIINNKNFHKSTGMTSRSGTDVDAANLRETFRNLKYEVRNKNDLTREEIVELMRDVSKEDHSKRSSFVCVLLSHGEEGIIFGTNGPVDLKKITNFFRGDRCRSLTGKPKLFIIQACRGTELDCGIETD
T1 sequence (P42574 176-277 limits assumed): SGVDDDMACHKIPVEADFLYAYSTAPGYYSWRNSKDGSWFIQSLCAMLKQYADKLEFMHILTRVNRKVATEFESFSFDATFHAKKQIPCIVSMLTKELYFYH
Test: AbRGT FRET imaging / acceptor photobleaching, caspase-3 GFPspark in MCF-7 cells
Assay type: cell-based
Set-up: host or cells: MCF-7, HeLa, HEK-293
Conditions: for effect of inhibitor on FRET signal: STS 4 h
Procedure: FIG. 2 depicts (a) a schematic representation of AbRGT in determining the specific activation of caspase-3 GFPspark tagged enzyme by FRET effect utilizing Rh-VAD-FMK (probe 1). (b) The fluorescence signal was collected in GFP, FRET and Rhodamine (Rh) channels. MCF-7 cells transfected with caspase-3 GFPspark treated with (i) 1 μM STS for 4 h or (ii) 1 μg/ml TRAIL for 5 h and then labelled with probe 1. (iii) Un-transfected MCF-7 cells were treated with 1 μM STS for 4 h and then labelled with the probe 1. MCF-7 cells transfected with enhanced green fluorescent protein (EGFP) plasmid treated (iv) with 1 μM STS or (v) without STS for 4 h and then labelled with probe 1, scale bar, […]. (c) FRET validation between GFPspark and rhodamine fluorophore using the acceptor photobleaching method. Images for GFP and rhodamine fluorescence signals were collected in GFP and FRET channels pre- and post-bleaching of rhodamine signals. (d) Quantification of change in GFP fluorescence intensity after rhodamine photo-bleaching in both unbleached control region and rhodamine bleached region, region of interest (ROI), area under the white square. Error bar represents the s.e.m for n=15 cells (*P<0.00001). Scale bar, 10 μm. a.u., arbitrary units.
FIGS. 6A and 6B depict time dependent activation of caspase-3 GFPspark in MCF-7 cells upon STS (1 μM) induction. MCF-7 cells transfected with 2 μg of caspase-3 GFPspark plasmid and treated with 1 μM of STS for 2, 6, and 8 h. Cells were then labelled with the probe 1 for an additional 2 h. […] FRET validation between GFPspark and rhodamine fluorophore using the acceptor photobleaching method for the MCF-7 cells with STS induction for 2, 6 and 8 h. I=intensity (a.u.), arbitrary units. The calculated FRET efficiency for 2, 6 and 8 h are 38, 43, and 36% respectively.
FIGS. 7A and 7B depict applying AbRGT for specific detection of active caspase-3 GFPspark using the Rh-DEVD-FMK (probe 2). Caspase-3 GFPspark (2 μg) overexpressing MCF-7 cells were treated with 1 μM of STS for 4 h and labelled with the probe 2 (1 μM). […] The rise in GFPspark intensity after rhodamine photobleaching in the background is insignificant as compared to the ROI, i.e., 68 a.u., with a calculated FRET efficiency of 35%.
FIG. 12 depicts confocal images of MCF-7 cells in GFP, FRET and Rh channel. Caspase-3 GFPspark transfected MCF-7 cells were treated with STS for 4 h and labelled (a) with or (b) without probe 1. Cells were pre-treated with (c) Z-VAD-FMK (50 μM) and (d) Q-VD-OPh (50 μM) pan-caspase inhibitors 3 h before the probe labelling.
Plasmids and transient transfection: GFPspark tagged plasmids; caspase-3 GFPspark tag (Cat: HG10050-ACG), caspase-7 GFPspark tag (HG10049-ACG), caspase-8 GFPspark (HG10078-ACG), caspase-9 GFPspark (HG11151-ACG) and cathepsin B GFPspark (HG10483-ACG) were procured from Sino Biological. For transfection, cells were seeded in a 6-well plate at a density of 0.4 million cells/well. At 60-70% confluency, cells were transiently transfected for 24 h at 37° C. with 1 μg of the GFPspark tagged plasmid DNA construct mixed with 5 μL of Lipofectamine 2000 (Invitrogen) according to the manufacturer's instructions. 24 h post-transfection, cells were visualized under the GFP filter for GFPspark expression under fluorescence microscope at 10× magnification.
Labelling of active caspases in apoptotic cells with FABP: After 24 h of transfection, cells were treated with STS (1 μM) drug or TRAIL (1 μg/ml) for apoptotic induction and incubated for 2, 4, 6 and 8 h at 37° C. in a humidified atmosphere of 5% CO2/95% air. Cells were gently scraped off from the surface at the end of apoptotic induction and centrifuged at 3000 rpm for 5 min. The cell pellet was resuspended in 300 μL of fresh DMEM containing 1 μM of probe for probe 2 and incubated for additional 2 h at 37° C. in a humidified atmosphere of 5% CO2. Cells were again centrifuged at 3000 rpm for 5 mins, and the supernatant was decanted. […]

[1] = MCF-7, inhibitor 50 μM pre-treatment before probe 1 labelling

Molecule	signal in Rh channel in presence of inhibitor [1]	effect of inhibitor on FRET signal [1]	calculated FRET efficiency (MCF-7, STS 1 μM 2 h) [%]	rise in GFP intensity after rhodamine photobleaching in ROI (MCF-7, STS 1 μM 4 h, probe 1 μM) [a.u.]	calculated FRET efficiency (MCF-7, STS 1 μM 4 h, probe 1 μM 2 h, acceptor photobleaching) [%]	calculated FRET efficiency (MCF-7, STS 1 μM 6 h) [%]	calculated FRET efficiency (MCF-7, STS 1 μM 8 h) [%]
CC(C)[C@H](NC(=O)c1ccc2ccccc2n1)C(=O)N[C@@H](CC(=O)O)C(=O)COc1c(F)cccc1F [Q-VD-OPh]	distinct punctate labelling was detected	abolished	–	–	–	–	–
COC(=O)C[C@H](NC(=O)[C@H](C)NC(=O)[C@@H](NC(=O)OCc1ccccc1)C(C)C)C(=O)CF [Z-VAD-FMK] (Cbz-Val-Ala-Asp(OMe)-CH2F)	–	completely abolished	–	–	–	–	–
Rhodamine-VAD-fluoromethyl ketone [probe 1]	–	–	38	58±3	35±1	43	36
